Test results taken from patent US20220096539A1, “SALT NANOPARTICLES AND COMPOSITIONS AND METHODS OF USE THEREOF” (priority 2019, published 2022).

Legend:
[1] = system: PC-3 cells; assay type: cell-based, human; conditions: MTT 24 h; NaCl salt at 160 μg/mL; free phospholipid
Description: Cells were seeded into 96-well plates at the density of 1×10^4 cells per well and incubated overnight. […] MTT assays (3-(4,5-dimethylthiazol-2-yl)-2,5-diphenyl tetrazolium bromide, Sigma) were performed following the manufacture's protocol. The absorbance at 570 nm was measured by a microplate reader (Synergy Mx, BioTeK). All measurements were performed in sextuplicate.

[2] = system: B16F10 cells; assay: CRT presentation, ATP and HMGB-1 release; assay type: cell-based, murine; conditions: control
Description: (§1) CRT expression on cell surface in flow cytometry assessment. T24, UMUC2, UPPL-1541, BBN963, B16F10, and SCC VII cells are seeded into the 6 wells plate at 1×10^6 per well. After overnight incubation, the cells were treated with NaCl particles ([…]) (160 μg/mL) for 2 h. PBS treated cells were used as a control. All the cells were collected by cell […], and incubated with an Alexa Fluor® 647-conjugated anti-CRT antibody (ab196159, 1/500. Abcam) for 30 min at 4° C. The cells were incubated in 500 μL PBS containing 50 μg/mL propidium iodide before washing and assessment on a flow cytometer. The data were expressed in histogram compared to the PBS treated control cells. Cells were seeded into 96-well plates at the density of 1×10^4 cells per well and incubated overnight. Then the cells were treated with […] dispersed in PBS at a dose range of 13.2-320 μg/mL for 1, 2, 4 h and 24 h. Cell supernatant was collected after 1-4 h incubation and tested in ATP 1step Luminescence Assay System, 100 mL ATP Assay Kit (PerkinElmer, US) following the manufacture's protocol. […] The luminescence was measured by a microplate reader (Synergy Mx, BioTeK). All measurements were performed in sextuplicate. Cell supernatant was collected after 24 h incubation and tested in an ELISA kit (IBL International GmbH), according to the manufacturer's instructions.

[3] = system: SCC VII cells; assay: CRT presentation, ATP and HMGB-1 release; assay type: cell-based, murine; conditions: control
Description: as §1

[4] = system: PC-3 cells; assay: Necrosis inhibition study (LDH release); assay type: cell-based, human; conditions: PC-3 cells pre-incubated with inhibitor 1 h, then PSCNPs
Description: PC-3 cells were plated overnight at a density of 1×10^4 cells per well in a 96-well plate. These cells were pre-treated with necrosis inhibitor glycine (5 mM) or capsase-1 inhibitor Ac-YVAD-cmk (30 μg/mL) for 1 h, and then incubated with […] (160 or 320 μg/mL) for 6 h. Cell without glycine or Ac-YVAD-cmk treatment were studied as controls. Supernatants were collected and the LDH contents were analyzed by LDH Assay Kit-WST (CT01-05, Dojindo, Japan). The results were normalized to PBS treated control cells.

[5] = assay type: physicochemical; conditions: pH 5.5
Description: were dispersed in 100 μl ammonium acetate buffers (pH=5.5 or pH=7) and added into a Slide-A-LyzerTM MINI Dialysis Device (MWCO=2K, Cat #69550, Thermofisher, US). Place the unite into a 5 mL Eppendorf tube containing 4.5 mL ammonium acetate buffer. Keep the tube on the shaker (20 rpm) at room temperature. […] All measurements were performed following the manufacture's protocol and repeated in sextuplicate.

[6] = system: PC-3 tumor xenografts; assay: In vivo therapy study, PC-3 tumor model; conditions: mouse
Description: Animal studied were performed according to a protocol approved by the Institutional Animal Care and Use Committee (IACUC) of the University of Georgia. The animals were maintained under pathogen-free conditions. PC-3 tumor model was generated by subcutaneously injecting 2×10^6 cells in 50 μL PBS into the right flank of 5-6 week old male athymic nude mice (Charles River). U-87 MG tumor model was generated in female athymic nude mice (Charles River) following the same method as PC-3 model. B16F10 tumor model was generated by subcutaneously injecting 2×10^5 cells in 50 μL PBS into the right flank of 5-6 week old female C57BU6 mice (Charles River). SCC VII tumor model was generated by subcutaneously injecting […] in 50 μL PBS into the right flank of 5-6 week old female C3H/HeN mice (Charles River). UPPL-1541 tumor model was generated by subcutaneously injecting 1×10^6 cells in 50 μL PBS into the right flank of 5-6 week old female C57BL6 mice (Charles River).
For therapy studies, PC-3 tumor bearing mice were randomly divided into 2 groups (n=5 for each group). When the average tumor volume was about 100 mm^3, PSCNPs (9 mg/mL, 50 μL) were intratumorally injected on day 0, 2 and 4. For control, saline at the same volume was injected. […] The tumor was measured in two dimensions with a caliper, and the tumor volume was estimated as (length)×(width) 2/2. […]

Row | Compound | toxicity to PC-3 cells [1] | reduction of PSCNP-induced LDH release [4] [%] | further results
1 | 1,2-distearoyl-sn-glycero-3-phosphoethanolamine-N-[amino(polyethylene glycol)-2000] (ammonium salt) [free phospholipid] | no toxicity |  | 
2 | [Cl-].[Na+] [NaCl salt, NaCl] | no toxicity |  | release of ICD biomarkers (ATP and HMGB-1) [2]: negligible impact; release of ICD biomarkers (ATP and HMGB-1) [3]: negligible impact
3 | NCC(=O)O [glycine] |  | 72.9 | 
4 | Ac-YVAD-cmk |  | 60.9 | 
5 | Phospholipid-coated Sodium Chloride Nanoparticles [PSCNPs] |  |  | effect of lowering pH to 5.5 on nanoparticle degradation [5]: did not accelerate nanoparticle degradation; toxicity in major organs [6]: no sign of toxicity
